Data on one sequence can be found in patent US20180340012A1, “METHODS AND CO[…] TO IMPROVING PROPERTIES OF PHARMACOLOGICAL AGENTS TARGETING NERVOUS SYSTEM” (University of Utah Research Foundation, priority 2006, published 2018).

The target in one assay is T1, hGalR3 (Homo sapiens, UniProt O60755).
T1 sequence (O60755 1-368): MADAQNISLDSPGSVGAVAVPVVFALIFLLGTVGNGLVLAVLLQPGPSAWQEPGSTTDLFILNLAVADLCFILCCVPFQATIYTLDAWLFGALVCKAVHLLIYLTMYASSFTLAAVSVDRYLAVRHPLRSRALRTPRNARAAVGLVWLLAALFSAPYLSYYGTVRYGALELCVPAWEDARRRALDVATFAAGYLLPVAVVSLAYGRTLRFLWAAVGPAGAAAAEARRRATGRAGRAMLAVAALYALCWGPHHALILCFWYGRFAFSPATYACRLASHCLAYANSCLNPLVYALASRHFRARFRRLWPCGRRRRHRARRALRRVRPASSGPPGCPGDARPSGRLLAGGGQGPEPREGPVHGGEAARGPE
The conditions noted are these: Table 18; compiled from literature; read-out: Affinity, KD hGalR3; cited from earlier work.

The next assay deals with 6 Hz limbic seizures. Kind of assay: 6 Hz limbic (psychomotor) seizure test. In kind it is in vivo, CF-1 mice. The conditions noted are these: 4 mg/kg, i.p. The source says:
Mice not displaying limbic seizures were considered protected.

For another assay, the target named is T2, hGalR2 (Homo sapiens, UniProt O43603).
T2 sequence (O43603 1-387): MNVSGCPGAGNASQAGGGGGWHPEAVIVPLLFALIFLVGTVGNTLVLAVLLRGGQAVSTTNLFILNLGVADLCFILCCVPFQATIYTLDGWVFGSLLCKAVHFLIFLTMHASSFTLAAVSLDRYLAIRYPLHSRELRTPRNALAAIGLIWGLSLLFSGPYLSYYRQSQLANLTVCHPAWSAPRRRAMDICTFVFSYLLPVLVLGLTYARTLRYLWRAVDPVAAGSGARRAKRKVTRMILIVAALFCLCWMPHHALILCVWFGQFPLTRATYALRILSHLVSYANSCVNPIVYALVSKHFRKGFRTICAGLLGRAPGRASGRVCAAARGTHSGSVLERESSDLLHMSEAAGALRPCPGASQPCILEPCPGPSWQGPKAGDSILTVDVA
Conditions: cited from earlier work.

Assay [1] concerns formalin-induced paw licking. Kind of assay: Mouse formalin test. In kind it is in vivo. The conditions noted are these: 20 mg/kg i.p. As for the experimental part: An injection of 0.5% formalin is made into the planter region of a mouse right hind paw. This elicits a distinct biphasic behavioral profile characterized by the mouse licking the affected paw. Immediately following the injection the mouse licks the paw for about 10 minutes. This is phase 1 (acute) and is followed by a brief latent period where there is little behavioral activity. A more prolonged period of about 20 to 30 minutes of paw licking ensues which constitutes phase 2 (inflammatory).
Prior to the administration of the active peptide, drug or vehicle each mouse undergoes a 15-minute conditioning period in one of several 6″ tall plexiglass observation tubes (4″ diameter) that are placed in front of a mirror. […] One hour after treatment, formalin was injected sub-dermally (20 μl; 27 gauge needle) into the plantar surface of the right hind foot. The bevel of the needle is placed facing down toward the skin surface. Following the injection of the formalin each animal is observed for first 2 minutes of each 5 minute epoch for a total of 45 minutes. The cumulative length of licking for each 2 minute time period was measured. An animal receiving the requisite volume of vehicle was alternated with each mouse given GAL-BBB2, Gal 1-16, or gabapentin. Animals were euthanized following the conclusion of the experiment.
Area under the curve (AUC) determination was made using the GraphPad Prism Version 3.03. Total AUC is calculated for both the test and control groups for both the acute and inflammatory phases. The AUC for individual animals for each phase is also calculated and converted to percentage of total AUC of control. The average percentages and SEM for both the drug treated and control were calculated and tested for significant difference.

A further assay has as its system sound-induced seizures. As to the kind of experiment: Frings audiogenic seizure-susceptible mouse model. In kind it is in vivo. Conditions: 20 mg/kg i.p. As for the experimental part:
The two modified galanin analogs (GAL-BBB1 and GAL-BBB2) were administered i.p. to a group of Frings audiogenic seizure susceptible mice in a dose of 4 mg/kg. At various times after administration (i.e., 15, 30, 60, 120, and 240 min) each mouse was placed into a cylindrical test chamber fitted with an audio transducer and challenged with a high-intensity sound stimulus (110 dB, 11 KHz for 20 sec). Animals not displaying tonic hind-limb extension were considered protected. […] In a subsequent study, anticonvulsant efficacy was quantitated at the time to peak effect (i.e., 1 h) in a dose-response study.
The ability of individual modified analogs to prevent seizures induced by sound in the AGS-susceptible Frings mouse model can be assessed at the time of peak effect (White et al., 1992). For this test, individual mice are placed into a plexiglass cylinder (diameter, 15 cm; height, 18 cm) fitted with an audio transducer (Model AS-ZC; FET Research and Development, Salt Lake City, Utah), and exposed to a sound stimulus of 110 decibels (11 KHz) delivered for 20 seconds. Sound-induced seizures are characterized by wild running followed by loss of righting reflex with forelimb and hindlimb tonic extension. Mice not displaying hindlimb tonic extension are considered protected.
At various times after administration (i.e., 15, 30, 60, 120, and 240 min) each mouse was placed into a cylindrical test chamber fitted with an audio transducer and challenged with a high-intensity sound stimulus (110 dB, 11 KHz for 20 sec).

Where two headings read alike, the source gives them in different places.

“GWTLNSAGYLLGPHAV [Gal(1-16), reference compound]”: the Kd at hGalR3 was 6.5 nM; on hGalR2 (Table 2, reference ligands, same values as Table 18, read-out: affinity toward galanin receptors, GalR2), 8.3 nM; at hGalR2 (Table 18, compiled from literature, read-out: Affinity, KD hGalR2), 8.3 nM. Besides, the “% Protection at 1, 2 and 4 hours (result in words)” value in the assay with 6 Hz limbic seizures is “Not active”. The “activity in formalin test” value in assay [1] was “inactive”. Further, the “anticonvulsant activity” value in the assay with sound-induced seizures is “inactive”.
